“And” between values parts separate entries of the source, which are not always exact repeats. Equal values may be shown once.
Legend:
[1] = system: BT-20; test: 3D spheroid assay BT-20; type: cell-based; conditions: Homo sapiens, 96 h; BT-20, 4 days treatment; read-out: IC50 3D spheroid cell viability
Procedure: (§1) Breast cancer cell lines were cultured in medium with or without 2% Matrigel (Corning, NY, USA) for 3 days in each 96-well ultra-low attachment round plate to form a single spheroid at a density of 3 × 10^3 cells/well. SJP1602 was dissolved in DMSO and treated for 4 days at concentrations ranging from 200 nM to 20 μM. Cell viability was quantified according to the manufacturer’s instructions using a CellTiter-Glo 3D cell viability assay (Promega, Madison, WI, USA). Luminescence was measured using the Tecan Spark 10M.

[2] = system: 4T1; test: 3D spheroid assay 4T1; type: cell-based; conditions: Mus musculus, 96 h; 4T1, 4 days treatment; read-out: IC50 3D spheroid cell viability
Procedure: as §1

[3] = target: T1, CK1γ3(h) (Homo sapiens, UniProt Q9Y6M4); test: Eurofins kinase profiling; type: biochemical; conditions: read-out: residual kinase activity CK1γ3(h)
T1 construct: purchased Eurofins KinaseProfiler
T1 sequence (Q9Y6M4 whole entry): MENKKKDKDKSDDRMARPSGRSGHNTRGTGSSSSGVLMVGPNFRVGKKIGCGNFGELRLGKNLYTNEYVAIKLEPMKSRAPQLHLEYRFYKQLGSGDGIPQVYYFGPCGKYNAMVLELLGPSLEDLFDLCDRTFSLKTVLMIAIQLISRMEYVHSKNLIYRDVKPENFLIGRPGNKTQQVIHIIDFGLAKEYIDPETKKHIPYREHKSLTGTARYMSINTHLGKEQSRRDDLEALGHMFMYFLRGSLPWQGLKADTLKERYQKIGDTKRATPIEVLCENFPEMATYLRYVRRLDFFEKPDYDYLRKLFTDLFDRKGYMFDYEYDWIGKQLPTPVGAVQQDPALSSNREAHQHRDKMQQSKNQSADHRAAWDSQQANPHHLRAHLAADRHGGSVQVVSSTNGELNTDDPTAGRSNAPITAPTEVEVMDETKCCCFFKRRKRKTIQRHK
Summary of the method: (§2)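 Single-point screen at 1 µM compound; radiometric read-out of kinase activity using radiolabeled phosphate, per standard KinaseProfiler protocol.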

[4] = target: T2, FGFR3(h) (Homo sapiens, UniProt P22607); test: Eurofins kinase profiling; type: biochemical; conditions: read-out: residual kinase activity FGFR3(h)
T2 construct: purchased Eurofins KinaseProfiler
T2 sequence (P22607 23-806): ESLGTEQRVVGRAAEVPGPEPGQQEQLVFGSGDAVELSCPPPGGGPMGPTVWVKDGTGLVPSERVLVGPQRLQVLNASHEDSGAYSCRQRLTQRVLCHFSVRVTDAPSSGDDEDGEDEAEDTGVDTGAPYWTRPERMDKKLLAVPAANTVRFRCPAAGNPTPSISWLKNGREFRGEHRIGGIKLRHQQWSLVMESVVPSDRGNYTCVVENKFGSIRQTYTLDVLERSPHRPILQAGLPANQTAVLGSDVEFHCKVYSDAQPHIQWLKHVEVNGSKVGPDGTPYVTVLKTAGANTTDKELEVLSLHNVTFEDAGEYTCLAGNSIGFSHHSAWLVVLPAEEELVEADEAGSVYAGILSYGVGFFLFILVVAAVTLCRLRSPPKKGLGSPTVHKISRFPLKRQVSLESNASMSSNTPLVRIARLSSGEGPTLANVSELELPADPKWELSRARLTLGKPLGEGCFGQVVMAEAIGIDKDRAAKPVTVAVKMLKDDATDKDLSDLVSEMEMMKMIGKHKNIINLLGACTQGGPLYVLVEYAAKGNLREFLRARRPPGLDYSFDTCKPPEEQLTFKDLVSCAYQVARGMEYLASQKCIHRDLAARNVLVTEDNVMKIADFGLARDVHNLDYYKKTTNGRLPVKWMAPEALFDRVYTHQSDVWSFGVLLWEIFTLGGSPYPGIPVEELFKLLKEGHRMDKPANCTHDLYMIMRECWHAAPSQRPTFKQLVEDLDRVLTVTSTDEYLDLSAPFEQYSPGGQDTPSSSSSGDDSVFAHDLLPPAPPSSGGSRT
Summary of the method: as §2

[5] = target: T3, HIPK2(h) (Homo sapiens, UniProt Q9H2X6); test: Eurofins kinase profiling; type: biochemical; conditions: read-out: residual kinase activity HIPK2(h)
T3 construct: purchased Eurofins KinaseProfiler
T3 sequence (Q9H2X6 whole entry): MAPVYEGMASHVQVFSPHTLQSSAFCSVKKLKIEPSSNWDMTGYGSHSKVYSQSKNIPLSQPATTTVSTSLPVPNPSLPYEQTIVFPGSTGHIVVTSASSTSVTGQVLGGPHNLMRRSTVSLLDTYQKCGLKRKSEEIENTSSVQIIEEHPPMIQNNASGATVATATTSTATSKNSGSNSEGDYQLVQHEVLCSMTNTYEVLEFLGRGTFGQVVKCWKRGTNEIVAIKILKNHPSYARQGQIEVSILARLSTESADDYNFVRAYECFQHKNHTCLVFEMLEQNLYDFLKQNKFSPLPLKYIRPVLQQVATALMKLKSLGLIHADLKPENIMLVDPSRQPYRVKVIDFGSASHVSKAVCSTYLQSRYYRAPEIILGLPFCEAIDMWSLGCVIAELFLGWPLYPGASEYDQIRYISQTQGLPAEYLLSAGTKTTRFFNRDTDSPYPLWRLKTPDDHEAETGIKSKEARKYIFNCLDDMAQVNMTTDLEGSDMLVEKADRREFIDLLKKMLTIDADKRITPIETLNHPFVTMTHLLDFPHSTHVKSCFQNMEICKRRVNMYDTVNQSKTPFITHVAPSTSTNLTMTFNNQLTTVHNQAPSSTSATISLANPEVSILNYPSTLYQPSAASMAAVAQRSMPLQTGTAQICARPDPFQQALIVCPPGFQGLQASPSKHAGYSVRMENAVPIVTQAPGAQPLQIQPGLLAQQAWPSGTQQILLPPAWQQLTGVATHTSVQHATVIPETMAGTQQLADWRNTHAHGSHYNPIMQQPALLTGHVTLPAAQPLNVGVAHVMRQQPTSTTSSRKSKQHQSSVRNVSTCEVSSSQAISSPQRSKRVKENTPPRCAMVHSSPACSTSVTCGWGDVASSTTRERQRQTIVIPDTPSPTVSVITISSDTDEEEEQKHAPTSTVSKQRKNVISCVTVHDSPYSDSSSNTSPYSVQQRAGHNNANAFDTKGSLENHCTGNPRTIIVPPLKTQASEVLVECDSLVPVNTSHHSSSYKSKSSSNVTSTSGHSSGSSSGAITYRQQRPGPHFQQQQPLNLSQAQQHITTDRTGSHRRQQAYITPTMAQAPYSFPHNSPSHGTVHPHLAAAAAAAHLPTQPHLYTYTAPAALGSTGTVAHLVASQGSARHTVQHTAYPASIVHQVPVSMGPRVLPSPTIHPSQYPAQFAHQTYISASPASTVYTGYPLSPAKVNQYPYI
Summary of the method: as §2

[6] = target: T4, Mer(h) (Homo sapiens, UniProt Q12866); test: Eurofins kinase profiling; type: biochemical; conditions: read-out: residual kinase activity Mer(h)
T4 construct: purchased Eurofins KinaseProfiler
T4 sequence (Q12866 21-999): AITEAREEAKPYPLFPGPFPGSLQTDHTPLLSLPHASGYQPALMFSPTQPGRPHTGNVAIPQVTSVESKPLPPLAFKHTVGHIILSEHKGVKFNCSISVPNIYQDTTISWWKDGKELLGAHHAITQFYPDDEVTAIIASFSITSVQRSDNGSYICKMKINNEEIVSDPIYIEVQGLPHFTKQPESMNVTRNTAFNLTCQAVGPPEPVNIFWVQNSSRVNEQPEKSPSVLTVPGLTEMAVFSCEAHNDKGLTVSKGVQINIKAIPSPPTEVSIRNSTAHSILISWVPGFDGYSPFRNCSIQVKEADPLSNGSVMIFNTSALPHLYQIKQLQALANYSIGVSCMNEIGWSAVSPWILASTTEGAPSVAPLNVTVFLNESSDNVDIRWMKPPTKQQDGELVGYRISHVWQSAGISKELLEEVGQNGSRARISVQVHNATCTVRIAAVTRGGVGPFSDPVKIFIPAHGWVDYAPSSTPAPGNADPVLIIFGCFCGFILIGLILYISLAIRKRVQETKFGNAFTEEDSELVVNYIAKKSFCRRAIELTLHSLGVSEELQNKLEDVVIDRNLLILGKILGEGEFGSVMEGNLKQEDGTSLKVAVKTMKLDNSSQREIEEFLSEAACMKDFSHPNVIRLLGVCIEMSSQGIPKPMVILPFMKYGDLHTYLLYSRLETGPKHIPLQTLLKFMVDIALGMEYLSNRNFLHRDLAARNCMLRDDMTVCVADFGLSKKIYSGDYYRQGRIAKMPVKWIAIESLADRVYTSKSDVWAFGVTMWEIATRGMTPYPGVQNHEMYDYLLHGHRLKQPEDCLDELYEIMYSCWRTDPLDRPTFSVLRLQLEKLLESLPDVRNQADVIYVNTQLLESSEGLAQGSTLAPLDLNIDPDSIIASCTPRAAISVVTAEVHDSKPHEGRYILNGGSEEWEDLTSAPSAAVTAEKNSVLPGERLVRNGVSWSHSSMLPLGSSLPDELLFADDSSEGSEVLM
Summary of the method: as §2

[7] = system: HCC70; test: 3D spheroid assay HCC70; type: cell-based; conditions: Homo sapiens, 96 h; HCC70, 4 days treatment; read-out: IC50 3D spheroid cell viability
Procedure: as §1

[8] = system: Hs578T; test: 3D spheroid assay Hs578T; type: cell-based; conditions: Homo sapiens, Hs-578T, 96 h, 4 days treatment, read-out: IC50 3D spheroid cell viability
Procedure: as §1

[9] = system: MDA-MB-231; test: 3D spheroid assay MDA-MB-231; type: cell-based; conditions: Homo sapiens, 96 h; MDA-MB-231, 2% Matrigel, 4 days treatment; read-out: IC50 3D spheroid cell viability
Procedure: as §1

[10] = system: MDA-MB-231 cells; test: Transwell cell migration assay; type: cell-based, human; conditions: 5 µM, 16 h
Procedure: Cell migration capacity was analyzed using the transwell migration assay. The 24-well chambers (8 μm pore size) were obtained from Corning (Corning, NY, USA). Cells treated with vehicle or FAK inhibitors (SJP1602, VS-6063, GSK2256098) at a concentration of 5 μM were resuspended in serum-free media and 5 × 10^4 cells were added to the upper compartment of the transwell chambers. Fresh culture medium with 5% FBS was added to the lower compartment. After 16 h, cells on the upper side of the filter were removed using cotton swabs. The underside of the filter was fixed in 100% methanol, washed in PBS, and stained using crystal violet. Migrated cells were analyzed using a microscope (Nikon, TE2000). Image analysis was performed using the color analysis function in Adobe Photoshop 2021 (Version 22.4.2, Adobe (San Jose, CA, USA)). Quantitative data were obtained from color measurement records in Adobe Photoshop 2021.

[11] = system: BT-549; test: 3D spheroid assay BT-549; type: cell-based; conditions: Homo sapiens, 96 h; BT-549, 4 days treatment; read-out: IC50 3D spheroid cell viability
Procedure: as §1

[12] = system: BT-549 xenograft; test: BT-549 xenograft mouse model
Procedure: (§3) Upon establishment of tumors, with an average tumor volume reaching approximately 100 mm^3, mice were grouped and subjected to daily oral dosing. […] The duration of drug administration was defined for 2 weeks based on the growth rate of the vehicle group of each xenografted tumor. The tumor volume was measured three times a week for potency measurement, and the body weight of mice was also measured three times a week for toxicity evaluation in vivo.

[13] = system: MDA-MB-453 xenograft; test: MDA-MB-453 xenograft mouse model; conditions: for TGI: 56 days
Procedure: as §3

[14] = system: MDA-MB-231 xenograft; test: MDA-MB-231 xenograft mouse model
Procedure: as §3

Row | Compound | IC50 [1] [µM] | IC50 [2] [µM] | remaining activity at 1 µM [3] [%] | remaining activity at 1 µM [4] [%] | remaining activity at 1 µM [5] [%] | remaining activity at 1 µM [6] [%] | IC50 [7] [µM] | IC50 [8] [µM] | IC50 [9] [µM] | serum-stimulated migration of MDA-MB-231 cells [10] | IC50 [11] [µM] | TGI ([12]; 80 mg/kg po QD) [%] | TGI ([13]; 80 mg/kg po QD) [%] | further results
1 | CONC(=O)c1ccccc1Nc1cc(Nc2cc(C)nn2C(C)C)ncc1Cl [GSK2256098] | > 10 | > 10 | 95 | 91 | 94 | 97 | > 10 | > 10 | 1.12 | did not affect | > 10 |  |  | 
2 | CNC(=O)c1cccc(C)c1Nc1nc(Nc2ccc(N3CCN(C4C5CC6CC4CC(O)(C6)C5)CC3)cc2OC)ncc1C(F)(F)F (centres unmarked) [SJP1602, 2-((2-((4-(4-((2s,5r)-5-hydroxyadamantan-2-yl)piperazin-1-yl)-2-methoxyphenyl)amino)-5-(trifluoromethyl)pyrimidin-4-yl)amino)-N,3-dimethylbenzamide] | 2.53 | 0.184 | 88 | 86 | 100 | 60 | 1.45 | > 10 | 0.742 | considerably reduced | 4.71 | 77.5 | 114.1 | tumor growth inhibition (in words) ([12]; 20 mg/kg): pronounced inhibition of cancer growth; TGI ([12]; 20 mg/kg po QD): 76.0%; tumor weight ([12]; 80 mg/kg, day 21): did not statistically significantly decrease; TGI ([13]; 20 mg/kg po QD): 88.9%; tumor volume and weight ([13]; 80 mg/kg, day 56): substantial reduction; TGI ([14]; 20 mg/kg po QD, day 14, 20 mg/kg): 72% and 72.1%; TGI ([14]; 40 mg/kg po QD, day 14, 40 mg/kg): 74%; TGI ([14]; 80 mg/kg po QD, day 14, 80 mg/kg): 81% and 81.3%; tumor mass and weight ([14]; 80 mg/kg, day 14): significant reduction
3 | CNC(=O)c1ccc(Nc2ncc(C(F)(F)F)c(NCc3nccnc3N(C)S(C)(=O)=O)n2)cc1 [VS-6063, Defactinib] | > 10 | 1.19 | 84 | 44 | 16 | 7 | 8.18 | 4.49 | 0.427 |  | > 10 | 10.1 | 110.9 | tumor growth inhibition (in words) ([12]; 80 mg/kg): ineffective; TGI ([14]; 80 mg/kg po QD, day 14): 54.6%
